molecular target: T1, Recombinant human Met (c-Met) (Homo sapiens, UniProt P08581); experiment: Inhibition of c-Met kinase activity using Transcreener FP assay; assay type: biochemical; settings: IC50, inhibition of c-Met kinase activity, Poly E4Y substrate, 28° C. 45 min
T1 construct: purchased Invitrogen PV3143
Experimental: Compound dilution: dilute test articles to 5 folds of the testing concentration using 20% DMSO.
The mixture is kept on ice until use;
Prepare ATP standard curve stock as following:
3. Enzymatic reaction: in 96-well reaction plate
Add 5 μL of test article or 5 μL of 20% DMSO or 5 μL of 500 mM EDTA;
Add 10 μL of Enzyme/Substrate stock;
Add 10 μL of ATP Diluent to begin the enzyme reaction and mix on plate shaker;
Add 5 μL of 20% DMSO, 10 μL of assay buffer and 10 μL of ATP standard curve stock into standard curve wells;
Gently shake at 28° C. for 45 min.
4. Stop reaction and detect ADP
Prepare Detection Mix: According to the procedures described in the Assay kit, Alexa633 tracer, ADP antibody and stop & detect buffer were added into H2O and mixed thoroughly. Prepare Tracer Only control: According to the procedures described in the Assay kit, ADP Alexa633 tracer and stop & detect buffer were added to H2O and mixed throughly.
Prepare No Tracer control: According to the procedures described in the Assay kit, the stop & detect buffer was diluted with H2O;
Add 25 μL of detection mix, Tracer Only control and No Tracer control into corresponding wells, respectively;
The reaction plate was gently shaken at 28° C. for 1 h;
Florescence polarization (FP) was measured on TECAN F500. Excitation wavelength: 610 nm, Emission wavelength: 670 nm.
Compound well [ADP] represents the ADP concentration of the compound well. Positive control well [ADP] represents the ADP concentration of the 20% DMSO well. Conversion of mP value to ADP concentration is based on the formula which is determined by standard curve.
IC50: calculated using XL-Fit 2.0 software.

T1 sequence (P08581 956-1390 limits assumed): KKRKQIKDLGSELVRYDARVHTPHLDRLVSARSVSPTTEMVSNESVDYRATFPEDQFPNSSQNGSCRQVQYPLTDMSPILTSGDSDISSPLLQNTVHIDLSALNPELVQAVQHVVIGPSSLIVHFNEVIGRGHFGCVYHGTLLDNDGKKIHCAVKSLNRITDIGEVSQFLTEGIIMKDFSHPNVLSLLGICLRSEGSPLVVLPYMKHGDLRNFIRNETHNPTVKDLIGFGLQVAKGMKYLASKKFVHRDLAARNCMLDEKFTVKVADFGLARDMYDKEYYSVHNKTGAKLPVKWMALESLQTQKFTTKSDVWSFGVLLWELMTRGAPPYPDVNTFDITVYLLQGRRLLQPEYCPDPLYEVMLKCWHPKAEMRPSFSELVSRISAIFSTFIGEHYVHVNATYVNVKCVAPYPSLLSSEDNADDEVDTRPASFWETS

Row | IC50 [nM] | Structure (SMILES)
1 | 1 to 100 | CC(c1ccc2nccn2c1)n1nnc2ncc(-c3cnn(C)c3)nc21 (racemic) [Compound 331]

same assay, conditions: Poly E4Y substrate, 28° C. 45 min, read-out: IC50, inhibition of c-Met kinase activity

Row | IC50 [nM] | Structure (SMILES)
2 | 100 to 1000 | Cn1cc(-c2cnc3nnn(Cc4ccc5ncsc5n4)c3n2)cn1 [Compound 289]
3 | 1 to 100 | COc1ccnc(Nc2cnc3nnn(Cc4ccc5ncccc5c4)c3n2)c1 [Compound 183]
4 | 100 to 1000 | CNCCCn1cc(-c2ccc3nnn(Cc4ccc5ncccc5c4)c3n2)cn1 [Compound 92]
5 | 1 to 100 | COc1cncc(Nc2cnc3nnn(Cc4ccc5ncccc5c4)c3n2)c1 [Compound 156]
6 | 100 to 1000 | COCCNc1cc(-c2ccc3nnn(Cc4ccc5ncccc5c4)c3n2)ccn1 [Compound 110]
7 | 1 to 100 | Cc1cccc(Oc2cnc3nnn(Cc4ccc5ncccc5c4)c3n2)n1 [Compound 255]
8 | 1 to 100 | OCCn1cc(-c2ccc3nnn(Cc4ccc5nccn5c4)c3n2)cn1 [Compound 134]
9 | 1 to 100 | Cc1csc(Nc2cnc3nnn(Cc4ccc5ncccc5c4)c3n2)n1 [Compound 172]
10 | 1 to 100 | OCCn1cc(-c2cnc3nnn(Cc4ccc5ncnn5c4)c3n2)cn1 [Compound 54]
11 | 1 to 100 | COCCn1cc(-c2cnc3nnn(Cc4ccc5nccn5c4)c3n2)cn1 [Compound 58]
12 | 1 to 100 | CN(c1ccncc1)c1cnc2nnn(Cc3ccc4ncccc4c3)c2n1 [Compound 177]
13 | 1 to 100 | OC1COCC1Nc1cc(Nc2cnc3nnn(Cc4ccc5ncccc5c4)c3n2)ccn1 (stereo not drawn) [Compound 228]
14 | 1 to 100 | COCc1cnc2ccc([C@@H](C)n3nnc4ncc(-c5cnn(C)c5)nc43)cn12 [Compound 325]
15 | 1 to 100 | Cn1cc(-c2ccc3nnn(Cc4ccc5ncccc5c4F)c3n2)cn1 [Compound 129]
16 | 1 to 100 | OCCn1cc(-c2ccc3nnn(Cc4ccc5ncccc5c4F)c3n2)cn1 [Compound 130]
17 | 1 to 100 | FC(F)(F)Cn1cc(-c2ccc3nnn(Cc4ccc5nccn5c4)c3n2)cn1 [Compound 141]
18 | 1 to 100 | CS(=O)(=O)Nc1cccc(-c2ccc3nnn(Cc4ccc5ncccc5c4)c3n2)c1 [Compound 85]
19 | 1 to 100 | N#Cc1cc(Nc2cnc3nnn(Cc4ccc5ncccc5c4)c3n2)ccn1 [Compound 190]
20 | 1 to 100 | CNC(=O)c1ccc(-c2ccc3nnn(Cc4ccc5ncccc5c4)c3n2)cn1 [Compound 83]
21 | 1 to 100 | COCCNc1ccc(-c2ccc3nnn(Cc4ccc5ncccc5c4)c3n2)cn1 [Compound 82]
22 | 100 to 1000 | OCCn1cc(-c2ccc3nnn(Cc4n[nH]c5ncccc45)c3n2)cn1 [Compound 138]
23 | 1 to 100 | COc1cccc(-c2ccc3nnn(Cc4c[nH]c5ncccc45)c3n2)c1 [Compound 112]
24 | 1 to 100 | COC(=O)c1cnn2ccc(Cn3nnc4ncc(-c5cnn(CCO)c5)nc43)cc12 [Compound 304]

Row | IC50 [nM] | Structure (SMILES)
25 | 1 to 100 | Cn1cc(-c2cnc3nnn(Cc4ccc5ncc(C=O)n5c4)c3n2)cn1 [Compound 307, 6-((6-(1-Methyl-1H-pyrazol-4-yl)-1H-[1,2,3]triazolo[4,5-b]pyrazin-1-yl)methyl)-imidazo[1,2-a]pyridine-3-carbaldehyde]
26 | 1 to 100 | COCc1cnc2ccc([C@H](C)n3nnc4ncc(-c5cnn(C)c5)nc43)cn12 [Compound 324]
27 | 100 to 1000 | c1cn2cc(Cn3nnc4ccc(-c5cnn(C6CCOCC6)c5)nc43)ccc2n1 [Compound 143]
28 | 100 to 1000 | OC1(CNc2ccc3nnn(Cc4ccc5ncccc5c4)c3n2)CCCCC1 [Compound 247]
29 | 100 to 1000 | OCCn1cc(-c2cnc3nnn(Cc4ccn5nccc5n4)c3n2)cn1 [Compound 288]
30 | 1 to 100 | CNCc1cnc2ccc(Cn3nnc4ncc(-c5cnn(C)c5)nc43)cn12 [Compound 327, N-methyl-1-(6-((6-(1-methyl-1H-pyrazol-4-yl)-1H-[1,2,3]triazolo[4,5-b]pyrazin-1-yl)methyl)imidazo[1,2-a]pyridin-3-yl)methanamine]
31 | 1 to 100 | OCCn1cc(-c2ccc3nnn(Cc4c[nH]c5ncccc45)c3n2)cn1 [Compound 86]
32 | 100 to 1000 | CCn1cc(-c2cnc3nnn(Cc4csc5ncccc45)c3n2)cn1 [Compound 41]
33 | 100 to 1000 | COCCNc1ccncc1Nc1cnc2nnn(Cc3ccc4ncccc4c3)c2n1 [Compound 209]
34 | 1 to 100 | Cn1ccc(Nc2cnc3nnn(Cc4ccc5ncccc5c4)c3n2)n1 [Compound 152, N-(1-methyl-1H-pyrazol-3-yl)-1-(quinolin-6-ylmethyl)-1H-[1,2,3]triazolo-[4,5-b]pyrazin-6-amine]
35 | 1 to 100 | Cc1cnc2ccc(Cn3nnc4ncc(-c5cnn(CCO)c5)nc43)cn12 [Compound 305]
36 | 1 to 100 | Cc1cc(Nc2cnc3nnn(Cc4ccc5ncccc5c4)c3n2)n[nH]1 [Compound 191]
37 | 1 to 100 | CC(C)n1cc(-c2cnc3nnn(Cc4cc5[nH]ncc5s4)c3n2)cn1 [Compound 26]
38 | 100 to 1000 | O[C@@H]1CCC[C@H]1Nc1ccc2nnn(Cc3ccc4ncccc4c3)c2n1 [Compound 241]
39 | 1 to 100 | Cn1cc(-c2cnc3nnn(Cc4ccc5ncsc5c4)c3n2)cn1 [Compound 11]
40 | 1 to 100 | OCCn1cc(-c2ccc3nnn(Cc4ccc5ncccc5c4)c3n2)cn1 [Compound 61]
41 | 1 to 100 | c1cnc2ccc(Cn3nnc4ncc(Nc5ccnc(N6CCOCC6)c5)nc43)cc2c1 [Compound 230]
42 | 1 to 100 | c1ccc(Nc2cnc3nnn(Cc4ccc5ncccc5c4)c3n2)nc1 [Compound 168]
43 | 1 to 100 | Brc1cnc2nnn(Cc3cc4[nH]ncc4s3)c2n1 [Compound 295]
44 | 1 to 100 | c1cnc2ccc(Cn3nnc4ccc(-c5cc[nH]n5)nc43)cc2c1 [Compound 81]
45 | 1 to 100 | Cn1cc(-c2cnc3nnn(Cc4ccc5ncc(Cl)n5c4)c3n2)cn1 [Compound 300]
46 | 1 to 100 | c1cnc2ccc(Cn3nnc4ncc(Oc5ccncc5)nc43)cc2c1 [Compound 250]
47 | 100 to 1000 | CC(=O)OCCn1cc(-c2ccc3nnn(Cc4ccc5ncccc5c4)c3n2)cn1 [Compound 98]

Row | IC50 [nM] | Structure (SMILES)
48 | 1 to 100 | CC(c1ccc2ncsc2c1)n1nnc2ncc(-c3cnn(C)c3)nc21 (stereo not drawn) [Compound 19]
49 | 1 to 100 | COCCn1cc(-c2ccc3nnn(Cc4c[nH]c5ncccc45)c3n2)cn1 [Compound 111]
50 | 1 to 100 | c1n[nH]cc1-c1cnc2nnn(Cc3cc4[nH]ncc4s3)c2n1 [Compound 44]
51 | 1 to 100 | c1csc(-c2ccc3nnn(Cc4ccc5ncccc5c4)c3n2)c1 [Compound 87]
52 | 100 to 1000 | c1cnc2ccc(Cn3nnc4ccc(-n5cccn5)nc43)cc2c1 [Compound 80]
53 | 1 to 100 | CC(C)n1cc(-c2ccc3nnn(Cc4ccc5nccn5c4)c3n2)cn1 [Compound 136]
54 | 1 to 100 | OCCn1cc(-c2cnc3nnn(Cc4cc5[nH]ncc5s4)c3n2)cn1 [Compound 13]
55 | 1 to 100 | COc1ccc(Nc2cnc3nnn(Cc4ccc5ncccc5c4)c3n2)cn1 [Compound 162]
56 | 1 to 100 | Cc1cc(Nc2cnc3nnn(Cc4ccc5ncccc5c4)c3n2)ccn1 [Compound 163]
57 | 1 to 100 | c1cnc2ccc(Cn3nnc4ncc(Nc5cncc(N6CCOCC6)c5)nc43)cc2c1 [Compound 193]
58 | 1 to 100 | c1cnc2ccc(Cn3nnc4ncc(Sc5ccncc5)nc43)cc2c1 [Compound 248]
59 | 100 to 1000 | Cc1cccc(Nc2ccc3nnn(Cc4ccc5ncccc5c4)c3n2)n1 [Compound 181]
60 | 1 to 100 | c1cnc2ccc(Cn3nnc4ccc(-c5ccc(N6CCOCC6)nc5)nc43)cc2c1 [Compound 63]
61 | 1 to 100 | COc1cccc(Nc2cnc3nnn(Cc4ccc5ncccc5c4)c3n2)n1 [Compound 197]
62 | 100 to 1000 | COCCNc1ccnc(Nc2cnc3nnn(Cc4ccc5ncccc5c4)c3n2)c1 [Compound 204]
63 | 1 to 100 | CC(=O)Nc1ccc(-c2ccc3nnn(Cc4c[nH]c5ncccc45)c3n2)cn1 [Compound 115]
64 | 1 to 100 | c1cc(Nc2cnc3nnn(Cc4ccc5ncccc5c4)c3n2)nc(N2CCOCC2)c1 [Compound 166]
65 | 1 to 100 | OCCn1cc(-c2ccc3nnn(Cc4cc5cccnc5cc4F)c3n2)cn1 [Compound 128]
66 | 1 to 100 | Cn1cc(-c2cnc3nnn(Cc4c[nH]c5ncccc45)c3n2)cn1 [Compound 1, 1-((1H-Pyrrolo[2,3-b]pyridin-3-yl)methyl)-6-(1-methyl-1H-pyrazol-4-yl)-1H-[1,2,3]-triazolo[4,5-b]pyrazine]
67 | 1 to 100 | N#CCn1cc(-c2cnc3nnn(Cc4ccc5nccn5c4)c3n2)cn1 [Compound 35]
68 | 1 to 100 | COCc1cnn2ccc(Cn3nnc4ncc(-c5cnn(CCO)c5)nc43)cc12 [Compound 322, 2-(4-(1-((3-(Methoxymethyl)pyrazolo[1,5-a]pyridin-5-yl)methyl)-1H-[1,2,3]triazolo[4,5-b]pyrazin-6-yl)-1H-pyrazol-1-yl)ethanol]
69 | 100 to 1000 | CNc1ccc(Nc2cnc3nnn(Cc4ccc5ncccc5c4)c3n2)cn1 [Compound 187]

Reference: patent publication US11896592B2, “Certain triazolopyridines and triazolopyrazines, compositions thereof and methods of use therefor” (Hutchison Medipharma Limited, priority 2009, dated 2024)
